Results reported in patent US20260356830A1, “COMPOUNDS FOR MODULATING RET PROTEIN” (Bristol-Myers Squibb Company, priority 2022, published 2026).

Molecular target: T1, CCDC6-RET (Homo sapiens, UniProt P07949+Q16204+Q96SW2)
T1 construct: CCDC6 (natural N-terminal fusion partner, UniProt Q16204); endogenous in cells; host or cells: TPC-1 (parental, papillary thyroid carcinoma)
Test: Cellular RET degradation, AlphaLISA, TPC-1 cell line
Type: cell-based
Settings: for Dmax: TPC1, human, 24 h, read-out: Cell Density TPC-1/CCDC6-RET Ymax %; for DC50: read-out: Cell Density TPC-1/CCDC6-RET DC50, half-maximal degradation concentration, TPC-1 (CCDC6-RET), 24 hrs
Experimental: Cellular RET degradation compound potency was determined using the bead-based luminescent amplification assay-AlphaLISA Surefire Ultra Detection Kit (Perkin-Elmer). The CCDC6-RET fusion expressing papillary thyroid carcinoma (TPC-1) cell line was selected for screening of potential degraders: Parental (TPC-1/CCDC6-RET). Cells were plated in 384 well culture plates (Greiner Bio-One) at 10,000 cells/well in 50 ul/well DMEM (Fisher Scientific) with 2% FBS serum (Gibco). […] Low normalization wells were media only and high normalization wells were cells treated with DMSO only. Treated cell plates were placed in an incubator at 37 °C and 5% CO2 for 24 hrs. At 24 hrs, cell media was removed by a FELIX automated liquid hander (Analytik Jena) and 25 ul of cell lysis buffer (provided in AlphaLisa kit) was added to each well. […] cell lysate were transferred into a 384-well microplate (Perkin Elmer) before addition of 2.5 ul AlphaLISA Acceptor Bead mix. The plates were sealed and kept at room temperature for 1 hr before addition of donor bead mixture. Donor bead addition was performed in the dark and incubated for >1 hr before AlphaLISA luminescence was measured on an Envision plate reader with an Alphascreen aperture at RT (excitation 680 nm, emission 615 nm). RET protein abundance (and therefore degradation) directly corresponds to luminescence intensity.
Intensities were normalized relative to the average values from 16 wells containing media alone (blank-low) and 16 wells containing cells +DMSO (high). % Degradation for each well was determined using the standard equation, where
DC50 (IC50) values for each compound tested are calculated by analyzing plots of % degradation versus compound concentration, and fitting to the standard 4-parameter logistic curve where,
DC50 values are calculated according to the relationship,
Compound replicates were performed in independent assays. Maximum degradation (YMax) was defined as the maximal % degradation value from the 4-parameter logistic equation, as previously described.

T1 sequence (Q16204+P07949 fused): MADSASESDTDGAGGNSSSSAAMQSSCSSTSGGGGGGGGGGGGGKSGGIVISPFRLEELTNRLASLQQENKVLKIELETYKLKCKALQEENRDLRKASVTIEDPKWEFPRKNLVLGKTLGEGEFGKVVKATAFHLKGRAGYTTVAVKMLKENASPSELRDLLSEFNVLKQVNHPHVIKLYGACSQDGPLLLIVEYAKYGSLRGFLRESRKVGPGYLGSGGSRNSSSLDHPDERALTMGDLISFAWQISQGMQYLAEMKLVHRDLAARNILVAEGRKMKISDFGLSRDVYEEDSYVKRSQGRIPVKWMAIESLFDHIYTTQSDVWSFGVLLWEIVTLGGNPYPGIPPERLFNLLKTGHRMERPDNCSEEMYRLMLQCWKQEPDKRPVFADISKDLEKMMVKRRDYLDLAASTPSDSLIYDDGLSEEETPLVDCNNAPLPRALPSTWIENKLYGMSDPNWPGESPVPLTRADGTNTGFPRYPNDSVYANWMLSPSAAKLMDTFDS
T1 sequence (Q96SW2 whole entry, the tested form may be a part): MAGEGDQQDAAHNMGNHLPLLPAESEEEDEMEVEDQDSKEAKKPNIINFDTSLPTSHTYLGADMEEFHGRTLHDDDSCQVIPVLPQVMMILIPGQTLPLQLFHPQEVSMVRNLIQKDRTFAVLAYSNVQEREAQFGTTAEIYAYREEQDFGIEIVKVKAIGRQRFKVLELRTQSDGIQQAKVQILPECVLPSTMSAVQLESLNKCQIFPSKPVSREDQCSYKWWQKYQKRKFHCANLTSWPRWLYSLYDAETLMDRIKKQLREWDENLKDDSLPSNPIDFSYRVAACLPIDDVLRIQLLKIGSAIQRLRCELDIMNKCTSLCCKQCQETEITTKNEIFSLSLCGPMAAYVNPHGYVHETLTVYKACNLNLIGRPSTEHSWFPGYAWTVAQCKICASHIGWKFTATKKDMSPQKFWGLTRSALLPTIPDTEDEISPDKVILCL
T1 sequence (Q16531 whole entry partner, the tested form may be a part): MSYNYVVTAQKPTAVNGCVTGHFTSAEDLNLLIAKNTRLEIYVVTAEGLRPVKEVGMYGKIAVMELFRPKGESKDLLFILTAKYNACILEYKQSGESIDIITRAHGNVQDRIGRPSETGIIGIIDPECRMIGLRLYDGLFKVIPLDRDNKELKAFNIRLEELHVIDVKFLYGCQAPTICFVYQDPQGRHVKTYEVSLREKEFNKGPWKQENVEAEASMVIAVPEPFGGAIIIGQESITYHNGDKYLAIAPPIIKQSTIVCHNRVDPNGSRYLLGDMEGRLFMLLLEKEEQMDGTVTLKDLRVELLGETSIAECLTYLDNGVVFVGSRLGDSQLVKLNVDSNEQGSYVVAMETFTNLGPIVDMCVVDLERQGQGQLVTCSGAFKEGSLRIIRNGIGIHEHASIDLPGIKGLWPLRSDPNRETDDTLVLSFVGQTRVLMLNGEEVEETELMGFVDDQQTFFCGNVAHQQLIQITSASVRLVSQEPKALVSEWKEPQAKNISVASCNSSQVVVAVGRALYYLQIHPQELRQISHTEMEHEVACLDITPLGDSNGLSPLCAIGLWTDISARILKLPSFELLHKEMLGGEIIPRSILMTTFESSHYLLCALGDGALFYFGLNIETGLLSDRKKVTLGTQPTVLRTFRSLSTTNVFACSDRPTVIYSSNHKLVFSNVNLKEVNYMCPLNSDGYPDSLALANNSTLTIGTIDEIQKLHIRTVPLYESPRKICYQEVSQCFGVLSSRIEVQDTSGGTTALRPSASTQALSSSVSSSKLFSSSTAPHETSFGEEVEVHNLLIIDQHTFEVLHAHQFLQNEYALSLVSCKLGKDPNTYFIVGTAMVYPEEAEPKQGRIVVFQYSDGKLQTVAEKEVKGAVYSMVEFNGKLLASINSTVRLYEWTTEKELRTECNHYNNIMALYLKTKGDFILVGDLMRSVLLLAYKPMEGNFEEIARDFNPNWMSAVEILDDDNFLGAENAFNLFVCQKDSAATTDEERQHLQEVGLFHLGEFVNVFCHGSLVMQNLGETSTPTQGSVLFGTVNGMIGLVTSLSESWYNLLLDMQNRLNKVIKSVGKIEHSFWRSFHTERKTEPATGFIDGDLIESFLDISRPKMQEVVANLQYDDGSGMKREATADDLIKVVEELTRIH

In the case of `CCOc1cc(-c2ccc(N3CCC(CN4CCN(C(=O)CCCCCCN5CCN(c6ccc7c(c6)CN(C6CCC(=O)NC6=O)C7=O)CC5)CC4)(NC(=O)c4ncccc4F)CC3)nc2)c2c(C#N)cnn2c1` (stereo not drawn) [Example 2, N-(1-(5-(3-cyano-6-ethoxypyrazolo[1,5-a]pyridin-4-yl)pyridin-2-yl)-4-((4-(7-(4-(2-(2,6-dioxopiperidin-3-yl)-1-oxoisoindolin-5-yl)piperazin-1-yl)heptanoyl)piperazin-1-yl)methyl)piperidin-4-yl)-3-fluoropicolinamide], the Dmax is reported as 60 to 90% and the DC50 is reported as 0.002 to 0.01 µM.
With `CCOc1cc(-c2ccc(N3CCC(CN4CCN(C(=O)CCCCCCN5CCN(c6ccc7c(c6)CN(C6CCC(=O)NC6=O)C7=O)CC5)CC4)(NC(=O)CC(C)C)CC3)nc2)c2c(C#N)cnn2c1` (stereo not drawn) [Example 3, N-(1-(5-(3-cyano-6-ethoxypyrazolo[1,5-a]pyridin-4-yl)pyridin-2-yl)-4-((4-(7-(4-(2-(2,6-dioxopiperidin-3-yl)-1-oxoisoindolin-5-yl)piperazin-1-yl)heptanoyl)piperazin-1-yl)methyl)piperidin-4-yl)-3-methylbutanamide] the Dmax was > 90% and the DC50 was 0.002 to 0.01 µM.
`CCOc1cc(-c2ccc(N3CCC(CN4CCN(C(=O)CCCCN5CCN(c6ccc7c(c6)CN(C6CCC(=O)NC6=O)C7=O)CC5)CC4)(NC(=O)c4cc(F)ccc4F)CC3)nc2)c2c(C#N)cnn2c1` (stereo not drawn) [Example 5, N-(1-(5-(3-cyano-6-ethoxypyrazolo[1,5-a]pyridin-4-yl)pyridin-2-yl)-4-((4-(5-(4-(2-(2,6-dioxopiperidin-3-yl)-1-oxoisoindolin-5-yl)piperazin-1-yl)pentanoyl)piperazin-1-yl)methyl)piperidin-4-yl)-2,5-difluorobenzamide] was tested, and the Dmax was > 90% and the DC50 was 0.002 to 0.01 µM.
`CCOc1cc(-c2ccc(N3CCC(CN4CCN(C(=O)CN5CCN(c6ccc7c(c6)CN(C6CCC(=O)NC6=O)C7=O)CC5)CC4)(NC(=O)c4cc(F)ccc4F)CC3)nc2)c2c(C#N)cnn2c1` (stereo not drawn) [Example 6, N-(1-(5-(3-cyano-6-ethoxypyrazolo[1,5-a]pyridin-4-yl)pyridin-2-yl)-4-((4-(2-(4-(2-(2,6-dioxopiperidin-3-yl)-1-oxoisoindolin-5-yl)piperazin-1-yl)acetyl)piperazin-1-yl)methyl)piperidin-4-yl)-2,5-difluorobenzamide] was tested, and the Dmax was > 90% and the DC50 was 0.002 to 0.01 µM.
`CCOc1cc(-c2ccc(N3CCC(CN4CCN(C(=O)CCN5CCC(c6ccc7c(c6)C(=O)N(C6CCC(=O)NC6=O)C7)CC5)CC4)(NC(=O)C4CC4)CC3)nc2)c2c(C#N)cnn2c1` (stereo not drawn) [Example 9, N-(1-(5-(3-cyano-6-ethoxypyrazolo[1,5-a]pyridin-4-yl)pyridin-2-yl)-4-((4-(3-(4-(2-(2,6-dioxopiperidin-3-yl)-3-oxoisoindolin-5-yl)piperidin-1-yl)propanoyl)piperazin-1-yl)methyl)piperidin-4-yl)cyclopropanecarboxamide] was tested, and the Dmax was > 90% and the DC50 was 0.002 to 0.01 µM.
With `CCOc1cc(-c2ccc(N3CCC(CN4CCN(C(=O)CCN5CCN(c6ccc7c(c6)C(=O)N(C6CCC(=O)NC6=O)C7)CC5)CC4)(NC(=O)c4cc(F)ccc4F)CC3)nc2)c2c(C#N)cnn2c1` (stereo not drawn) [Example 12, N-(1-(5-(3-cyano-6-ethoxypyrazolo[1,5-a]pyridin-4-yl)pyridin-2-yl)-4-((4-(3-(4-(2-(2,6-dioxopiperidin-3-yl)-3-oxoisoindolin-5-yl)piperazin-1-yl)propanoyl)piperazin-1-yl)methyl)piperidin-4-yl)-2,5-difluorobenzamide] the Dmax was > 90% and the DC50 was < 0.002 µM.
For `CCOc1cc(-c2ccc(N3CCC(CN4CCN(C(=O)CCCCN5CCN(c6ccc7c(c6)C(=O)N(C6CCC(=O)NC6=O)C7)CC5)CC4)(NC(=O)c4cc(F)ccc4F)CC3)nc2)c2c(C#N)cnn2c1` (stereo not drawn) [Example 13, N-(1-(5-(3-cyano-6-ethoxypyrazolo[1,5-a]pyridin-4-yl)pyridin-2-yl)-4-((4-(5-(4-(2-(2,6-dioxopiperidin-3-yl)-3-oxoisoindolin-5-yl)piperazin-1-yl)pentanoyl)piperazin-1-yl)methyl)piperidin-4-yl)-2,5-difluorobenzamide], the Dmax was > 90% and the DC50 was < 0.002 µM.
With `CCOc1cc(-c2ccc(N3CCC(CN4CCN(C(=O)CCCN5CCN(c6ccc7c(c6)CN(C6CCC(=O)NC6=O)C7=O)CC5)CC4)(NC(=O)c4cc(F)ccc4F)CC3)nc2)c2c(C#N)cnn2c1` (stereo not drawn) [Example 14, N-(1-(5-(3-cyano-6-ethoxypyrazolo[1,5-a]pyridin-4-yl)pyridin-2-yl)-4-((4-(4-(4-(2-(2,6-dioxopiperidin-3-yl)-1-oxoisoindolin-5-yl)piperazin-1-yl)butanoyl)piperazin-1-yl)methyl)piperidin-4-yl)-2,5-difluorobenzamide] the Dmax was 60 to 90% and the DC50 was 0.002 to 0.01 µM.
`CCOc1cc(-c2ccc(N3CCC(CN4CCN(C(=O)CCCCCCN5CCN(c6ccc7c(c6)C(=O)N(C6CCC(=O)NC6=O)C7)CC5)CC4)(NC(=O)c4cc(F)ccc4F)CC3)nc2)c2c(C#N)cnn2c1` (stereo not drawn) [Example 16, N-[1-(5-{3-cyano-6-ethoxypyrazolo[1,5-a]pyridin-4-yl}pyridin-2-yl)-4-{[4-(7-{4-[2-(2,6-dioxopiperidin-3-yl)-3-oxo-2,3-dihydro-1H-isoindol-5-yl]piperazin-1-yl}heptanoyl)piperazin-1-yl]methyl}piperidin-4-yl]-2,5-difluorobenzamide] was tested, and the Dmax was > 90% and the DC50 was 0.002 to 0.01 µM.
`CCOc1cc(-c2ccc(N3CCC(CN4CCN(C(=O)CCCCN5CCC(c6ccc7c(c6)C(=O)N(C6CCC(=O)NC6=O)C7)CC5)CC4)(NC(=O)c4cc(F)ccc4F)CC3)nc2)c2c(C#N)cnn2c1` (stereo not drawn) [Example 18, N-[1-(5-{3-cyano-6-ethoxypyrazolo[1,5-a]pyridin-4-yl}pyridin-2-yl)-4-{[4-(5-{4-[2-(2,6-dioxopiperidin-3-yl)-3-oxo-2,3-dihydro-1H-isoindol-5-yl]piperidin-1-yl}pentanoyl)piperazin-1-yl]methyl}piperidin-4-yl]-2,5-difluorobenzamide] was tested, and the Dmax was > 90% and the DC50 was < 0.002 µM.
In the case of `CCOc1cc(-c2ccc(N3CCC(CN4CCN(C(=O)CCCCCCN5CCC(c6ccc7c(c6)C(=O)N(C6CCC(=O)NC6=O)C7)CC5)CC4)(NC(=O)c4cc(F)ccc4F)CC3)nc2)c2c(C#N)cnn2c1` (stereo not drawn) [Example 19, N-[1-(5-{3-cyano-6-ethoxypyrazolo[1,5-a]pyridin-4-yl}pyridin-2-yl)-4-{[4-(7-{4-[2-(2,6-dioxopiperidin-3-yl)-3-oxo-2,3-dihydro-1H-isoindol-5-yl]piperidin-1-yl}heptanoyl)piperazin-1-yl]methyl}piperidin-4-yl]-2,5-difluorobenzamide], the Dmax is reported as > 90% and the DC50 is reported as 0.002 to 0.01 µM.
For `CCOc1cc(-c2ccc(N3CCC(CN4CCN(C(=O)CCCCCCNc5ccc(C6CCC(=O)NC6=O)cc5)CC4)(NC(=O)c4cc(F)ccc4F)CC3)nc2)c2c(C#N)cnn2c1` (stereo not drawn) [Example 20, N-[1-(5-{3-cyano-6-ethoxypyrazolo[1,5-a]pyridin-4-yl}pyridin-2-yl)-4-{[4-(7-{[4-(2,6-dioxopiperidin-3-yl)phenyl]amino}heptanoyl)piperazin-1-yl]methyl}piperidin-4-yl]-2,5-difluorobenzamide], the Dmax was > 90% and the DC50 was 0.002 to 0.01 µM.
For `CCOc1cc(-c2ccc(N3CCC(CN4CCN(C(=O)CCCCCCCCNc5ccc(C6CCC(=O)NC6=O)cc5)CC4)(NC(=O)c4cc(F)ccc4F)CC3)nc2)c2c(C#N)cnn2c1` (stereo not drawn) [Example 21, N-[1-(5-{3-cyano-6-ethoxypyrazolo[1,5-a]pyridin-4-yl}pyridin-2-yl)-4-{[4-(9-{[4-(2,6-dioxopiperidin-3-yl)phenyl]amino}nonanoyl)piperazin-1-yl]methyl}piperidin-4-yl]-2,5-difluorobenzamide], the Dmax was 60 to 90% and the DC50 was 0.01 to 0.1 µM.
Work on `CCOc1cc(-c2ccc(N3CCC(CN4CCN(C(=O)CCCCCCNc5cccc(NC6CCC(=O)NC6=O)c5)CC4)(NC(=O)c4cc(F)ccc4F)CC3)nc2)c2c(C#N)cnn2c1` (stereo not drawn) [Example 22, N-[1-(5-{3-cyano-6-ethoxypyrazolo[1,5-a]pyridin-4-yl}pyridin-2-yl)-4-({4-[7-({3-[(2,6-dioxopiperidin-3-yl)amino]phenyl}amino)heptanoyl]piperazin-1-yl}methyl)piperidin-4-yl]-2,5-difluorobenzamide] yielded a Dmax of 60 to 90% and a DC50 of 0.01 to 0.1 µM.
In the case of `CCOc1cc(-c2ccc(N3CCC(CN4CCN(C(=O)CCCCCCCCNc5cccc(NC6CCC(=O)NC6=O)c5)CC4)(NC(=O)c4cc(F)ccc4F)CC3)nc2)c2c(C#N)cnn2c1` (stereo not drawn) [Example 23, N-[1-(5-{3-cyano-6-ethoxypyrazolo[1,5-a]pyridin-4-yl}pyridin-2-yl)-4-({4-[9-({3-[(2,6-dioxopiperidin-3-yl)amino]phenyl}amino)nonanoyl]piperazin-1-yl}methyl)piperidin-4-yl]-2,5-difluorobenzamide], the Dmax is reported as > 90% and the DC50 is reported as 0.01 to 0.1 µM.
